Experimental data from the supplement of paper PMC10307832.

Legend:
Test in all cases: relative viability (nuclei count vs DMSO), 5 days (fraction); higher = more cells survive
[1] = compound: C1COCCN1C2=NC(=NC3=C2OC4=C3C=CC=N4)C5=CC(=CC=C5)NC(=O)C6=CN=C(C=C6)N + CC1(C)CCC(c2ccc(Cl)cc2)=C(CN2CCN(c3ccc(C(=O)NS(=O)(=O)c4ccc(N[C@H](CCN5CCOCC5)CSc5ccccc5)c(S(=O)(=O)C(F)(F)F)c4)cc3)CC2)C1 [Navitoclax] (partner 0.5 µM)
How it was run: (§1)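 Nuclei were stained with Hoechst during a one-step fixation (final 0.05% Triton X-100, 1% formaldehyde, 1 ug/ml Hoechst) carried out 5 days after dosing, then counted on 4× images. The cells, lung cancer lines in 1536-well plates, had been dosed by pin tool the day after seeding with one drug alone or a fixed anchor-drug dose plus five library-drug doses (not always all listed) in √10 steps. Relative viability is the nuclei count in treated wells divided by that in vehicle wells, and each value is the median of duplicate plates.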

Entinostat + Linsitinib = compound: Nc1ccccc1NC(=O)c1ccc(CNC(=O)OCc2cccnc2)cc1 [Entinostat] + C[C@]1(O)C[C@@H](c2nc(-c3ccc4ccc(-c5ccccc5)nc4c3)c3c(N)nccn32)C1 [Linsitinib] (partner 1 µM)
How it was run: as §1

Entinostat + Trametinib = compound: Nc1ccccc1NC(=O)c1ccc(CNC(=O)OCc2cccnc2)cc1 [Entinostat] + CC(=O)Nc1cccc(-n2c(=O)n(C3CC3)c(=O)c3c(Nc4ccc(I)cc4F)n(C)c(=O)c(C)c32)c1 [Trametinib] (partner 0.02 µM)
How it was run: as §1

SGI-1776 + OSI-027 = compound: CN1CCC(CNc2ccc3ncc(-c4cccc(OC(F)(F)F)c4)n3n2)CC1 [SGI-1776] + COc1cccc2cc(-c3nc([C@H]4CC[C@H](C(=O)O)CC4)n4ncnc(N)c34)[nH]c12 [OSI-027] (partner 0.5 µM)
How it was run: as §1

| Cell Line | relative viability ([1]; first compound 0.02 µM) | relative viability ([1]; first compound 0.06325 µM) | relative viability ([1]; first compound 0.2 µM) | relative viability ([1]; first compound 0.6325 µM) | relative viability ([1]; first compound 2 µM) | relative viability (Entinostat + Linsitinib; first compound 0.02 µM) | relative viability (Entinostat + Linsitinib; first compound 0.06325 µM) | relative viability (Entinostat + Linsitinib; first compound 0.2 µM) | relative viability (Entinostat + Linsitinib; first compound 0.6325 µM) | relative viability (Entinostat + Linsitinib; first compound 2 µM) | relative viability (Entinostat + Trametinib; first compound 0.02 µM) | relative viability (Entinostat + Trametinib; first compound 0.06325 µM) | relative viability (Entinostat + Trametinib; first compound 0.2 µM) | relative viability (Entinostat + Trametinib; first compound 0.6325 µM) | relative viability (Entinostat + Trametinib; first compound 2 µM) | relative viability (SGI-1776 + OSI-027; first compound 0.08 µM) | relative viability (SGI-1776 + OSI-027; first compound 0.8 µM) | relative viability (SGI-1776 + OSI-027; first compound 2.53 µM) | relative viability (SGI-1776 + OSI-027; first compound 8 µM) |
| --- | --- | --- | --- | --- | --- | --- | --- | --- | --- | --- | --- | --- | --- | --- | --- | --- | --- | --- | --- |
| NCI-H441 | 0.546 | 0.566 | 0.571 | 0.665 | 0.297 | 0.483 | 0.494 | 0.524 | 0.262 | 0.13 | 0.498 | 0.687 | 0.568 | 0.227 | 0.147 | 0.58 | 0.559 | 0.743 | 0.388 |
| COR-L 105 | 0.805 | 0.754 | 0.69 | 0.531 | 0.584 | 1.01 | 0.974 | 0.876 | 0.491 | 0.341 | 0.475 | 0.45 | 0.45 | 0.413 | 0.406 | 0.746 | 0.716 | 0.658 | 0.38 |
| NCI-H2009 | 1.19 | 1.2 | 1.12 | 1.05 | 0.954 | 1.28 | 1.18 | 1.06 | 0.8 | 0.651 | 0.312 | 0.354 | 0.325 | 0.294 | 0.238 | 0.653 | 0.636 | 0.591 | 0.282 |
| PC-14 | 1.09 | 1.06 | 1.02 | 1.01 | 0.465 | 1.03 | 0.947 | 1.03 | 0.364 | 0.16 | 0.653 | 0.61 | 0.502 | 0.145 | 0.0754 | 0.857 | 0.945 | 0.671 | 0.0734 |
| NCI-H1944 | 1.03 | 1.04 | 0.957 | 0.841 | 0.858 | 1.12 | 1.19 | 1.23 | 0.554 | 0.357 | 0.387 | 0.43 | 0.333 | 0.265 | 0.232 | 0.436 | 0.428 | 0.344 | 0.342 |
| NCI-H2085 | 1.15 | 1.12 | 1.05 | 1.1 | 0.602 | 0.871 | 0.865 | 0.788 | 0.574 | 0.499 | 0.552 | 0.765 | 0.508 | 0.499 | 0.408 | 0.745 | 0.828 | 0.853 | 0.44 |
| NCI-H1792 | 0.571 | 0.675 | 0.718 | 0.53 | 0.462 | 0.476 | 0.502 | 0.392 | 0.276 | 0.153 | 0.479 | 0.431 | 0.366 | 0.442 | 0.155 | 0.764 | 0.68 | 0.688 | 0.514 |
| NCI-H2347 | 0.854 | 0.895 | 0.815 | 0.747 | 0.528 | 0.987 | 0.984 | 0.903 | 0.408 | 0.349 | 0.254 | 0.273 | 0.218 | 0.205 | 0.222 | 0.421 | 0.489 | 0.518 | 0.426 |
| 201T | 1.2 | 1.23 | 1.14 | 1.12 | 1.1 | 1.1 | 1.13 | 1.09 | 0.902 | 0.617 | 0.746 | 0.72 | 0.684 | 0.716 | 0.545 | 0.823 | 0.703 | 0.708 | 0.6 |
| NCI-H1755 | 0.987 | 1.13 | 1.05 | 0.861 | 0.561 | 0.984 | 0.988 | 0.866 | 0.625 | 0.412 | 0.721 | 0.751 | 0.605 | 0.565 | 0.44 | 0.703 | 0.637 | 0.533 | 0.529 |
| NCI-H596 | 1.04 | 0.983 | 1.03 | 0.912 | 0.444 | 1.08 | 1.17 | 0.958 | 0.9 | 0.799 | 0.748 | 0.638 | 0.807 | 0.649 | 0.459 | 0.809 | 0.761 | 0.682 | 0.467 |
| NCI-H1651 | 1.33 | 1.18 | 0.984 | 1.15 | 0.614 | 0.952 | 0.976 | 0.959 | 0.827 | 0.365 | 0.931 | 0.844 | 0.844 | 0.745 | 0.606 | 0.81 | 0.683 | 0.677 | 0.529 |
| NCI-H1437 | 1.15 | 1.16 | 1.04 | 1.08 | 0.563 | 0.92 | 0.565 | 0.298 | 0.151 | 0.113 | 0.406 | 0.31 | 0.276 | 0.276 | 0.221 | 0.913 | 0.976 | 0.819 | 0.806 |
| NCI-H1975 | 1.31 | 1.17 | 1.05 | 1.13 | 0.422 | 0.791 | 0.755 | 0.692 | 0.302 | 0.27 | 0.373 | 0.32 | 0.313 | 0.223 | 0.169 | 0.72 | 0.688 | 0.525 | 0.428 |
